Data from PMC12224672, “Advancing the development of TRIP13 inhibitors: A high-throughput screening approach” (SLAS discovery : advancing life sciences R & D, 2025).

Target: T1, TRIP13 (Homo sapiens, UniProt Q15645)
T1 construct: full length, 1-432 aa, N-GST-tagged
T1 sequence (Q15645 1-432): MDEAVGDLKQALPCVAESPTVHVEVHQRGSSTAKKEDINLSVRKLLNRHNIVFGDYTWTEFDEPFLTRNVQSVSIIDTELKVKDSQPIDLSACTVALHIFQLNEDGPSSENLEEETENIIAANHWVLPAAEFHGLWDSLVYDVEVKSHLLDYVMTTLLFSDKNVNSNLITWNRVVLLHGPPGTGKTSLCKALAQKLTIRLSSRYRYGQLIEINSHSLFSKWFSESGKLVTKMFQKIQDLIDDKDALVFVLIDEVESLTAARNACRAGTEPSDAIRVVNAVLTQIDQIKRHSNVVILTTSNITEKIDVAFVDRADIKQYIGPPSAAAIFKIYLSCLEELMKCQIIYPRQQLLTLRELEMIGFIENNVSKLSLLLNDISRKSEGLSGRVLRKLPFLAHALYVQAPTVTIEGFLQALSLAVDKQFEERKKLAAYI
Experiment: ADP-Glo ATPase dose-response ([…] TRIP13, […] ATP) with ADP counter-screen; also CETSA in HeLa cells
Format: biochemical

IC50: 5.5 ± 1 µM
Compound: COc1cc2c(Oc3ccc4[nH]c(C)cc4c3F)ccnc2cc1OCC1(N)CC1 [anlotinib]
